# Source: US11208423B2, “Pyridinamine-pyridone and pyrimidinamine- pyridone compounds” (Sprint Bioscience AB, priority 2017, dated 2021)
# Experiments:
# Vps34 enzyme = Vps34 enzyme (Homo sapiens (Human), UniProt Q8NEB9); assay: Vps34 Biochemical Assay (Adapta kinase assay); conditions: 20 μM ATP / 200 μM PI:PS substrate mix, 1 h at room temperature, TR-FRET, read-out: Median IC50 nM Adapta
# Description: Dilution series of compounds of the invention were prepared in DMSO at 100 times the final assay concentration (n1=n0/3 in 10 points). The compounds were further diluted to 4 times the assay concentration in assay buffer (Life technologies buffer Q, PV5125, diluted 5 times supplemented with 2 mM DTT and 2 mM MnCl2). 2.5 μl of the diluted compounds were added to a 384 well assay plate followed by 2.5 μl of 16.5 nM Vps34 enzyme (Life technologies, PV5126). Enzyme and compounds were pre-incubated at rt for 15 min. Then 5 μl of substrate mix containing 20 μM ATP (Life technologies, PV3227) and 200 μM PI:PS substrate (Life technologies, PV5122) in assay buffer was added to the wells containing compound and enzyme. Mixing was performed by pipetting several times. The reaction was incubated at room temperature for 1 h. Then 5 μl stop-detection mix, prepared as described in the Adapta kinase assay kit instructions (Life technologies, PV5099) containing Adapta Eu-anti-ADP antibody (2.3 nM), Alexa Fluor 647 ADP tracer (9 nM) and EDTA (30 mM) in TR-FRET buffer, was added to quench the reaction. Mixing was performed by pipetting several times. The assay plate was then incubated at room temperature for 30 min and read with Artemis micro plate reader. Percent inhibition of the compounds as compared to DMSO treated control samples was calculated. By the use of Dotmatics software compound concentration versus percent inhibition was fitted to generate IC50 values.
# [1] = tested on: autophagy in HOS cells (GFP-LC3); assay: High Content Screening Autophagy Assay (GFP-LC3 foci); format: cell-based; conditions: Homo sapiens; HOS cells expressing GFP-LC3; autophagy activated with KU-0063794 500 nM plus Bafilomycin A1 5 nM; 6 hours; foci area per cell; read-out: Median IC50 (μM) Cellular assay
# Description: High Content Screening Autophagy Assay
# Human osteosarcoma cells (HOS) stably expressing a Green Fluorescent Protein (GFP) tagged LC3 (GFP-LC3) were used to determine the inhibitory effect on autophagy of proprietary compounds. For that purpose, autophagy was activated by using the mTOR inhibitor KU-0063794 at 500 nM in the presence of Bafilomycin A1 (Sigma-Aldrich) at 5 nM. Shortly, cells were plated overnight in clear bottom 96-well plates in DMEM—High Modified media (Hi-Clone Cat #SH30285.01). At the start of the experiment, the media was removed and replaced with fresh media containing the mTOR inhibitor, Bafilomycin A1 and the vehicle or a test compound as indicated. After 6 hours the media was removed, cells were washed twice with ice-cold phosphate buffered saline (PBS) and fixed with 4% paraformaldehyde for 20 minutes at room temperature. Then the cells were washed twice with ice-cold PBS before adding Hoechst 33342 at 1 μg/ml in PBS for nuclear staining. After incubation overnight at 4° C., cells were washed once with PBS to remove the excess of dye and 100 μl of PBS was added to each well. Images were acquired at 20× magnification, 6 images per well, using the ImageXpress automated microscope (Molecular Devices Inc.) and analyzed with MetaXpress software to identify LC3-GFP foci. Foci area per cell values were used to generate dose response curves and IC50 values were calculated using the non-linear fitting analysis in GraphPad Prism software.
# The results of the assay are shown in Table 2 (Median IC50 μM HOS-LC3).
# Chain of Vps34 enzyme (Q8NEB9 whole entry): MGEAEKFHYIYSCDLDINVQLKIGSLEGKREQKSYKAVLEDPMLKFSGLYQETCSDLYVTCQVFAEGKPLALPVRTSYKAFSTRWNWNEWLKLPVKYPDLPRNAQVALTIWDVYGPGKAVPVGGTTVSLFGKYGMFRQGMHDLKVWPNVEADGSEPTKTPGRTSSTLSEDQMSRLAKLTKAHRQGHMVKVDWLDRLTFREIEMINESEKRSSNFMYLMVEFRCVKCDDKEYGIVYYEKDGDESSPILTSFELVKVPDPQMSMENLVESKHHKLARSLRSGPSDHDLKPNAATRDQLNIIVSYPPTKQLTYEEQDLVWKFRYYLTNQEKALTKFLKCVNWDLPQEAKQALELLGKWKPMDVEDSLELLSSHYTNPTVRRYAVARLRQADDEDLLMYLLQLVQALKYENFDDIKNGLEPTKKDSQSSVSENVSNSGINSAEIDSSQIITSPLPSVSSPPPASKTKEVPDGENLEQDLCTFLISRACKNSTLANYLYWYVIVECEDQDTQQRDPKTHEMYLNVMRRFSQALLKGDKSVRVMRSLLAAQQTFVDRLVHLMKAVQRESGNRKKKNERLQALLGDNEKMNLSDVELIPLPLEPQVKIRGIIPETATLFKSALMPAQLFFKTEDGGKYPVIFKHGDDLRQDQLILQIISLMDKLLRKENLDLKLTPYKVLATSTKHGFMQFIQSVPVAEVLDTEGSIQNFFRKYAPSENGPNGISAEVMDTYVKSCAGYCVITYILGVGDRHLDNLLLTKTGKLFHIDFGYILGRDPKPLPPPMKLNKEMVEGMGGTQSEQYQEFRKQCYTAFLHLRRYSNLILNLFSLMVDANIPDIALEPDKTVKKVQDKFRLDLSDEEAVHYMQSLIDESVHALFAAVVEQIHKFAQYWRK
SMILES,IC50 (Vps34 enzyme),IC50 [1]
"O=c1cc(-c2ccnc(Nc3ncco3)c2)cc(N2CCOCC2C(F)(F)F)[nH]1 (stereo not drawn) [Example 40, 4-[2-(Oxazol-2-ylamino)-4-pyridyl]-6-[3-(trifluoromethyl)morpholin-4-yl]-1H-pyridin-2-one]",< 5 nM,0.029 µM
"Cn1cnc(Nc2cc(-c3cc(-c4ccccc4C(F)(F)F)[nH]c(=O)c3)ccn2)c1 [Example 62, 4-[2-[(1-Methylimidazol-4-yl)amino]-4-pyridyl]-6-[2-(trifluoromethyl)phenyl]-1H-pyridin-2-one]",12 nM,–
"Cc1nccc(Nc2cc(-c3cc(N4CCOCC4C(F)(F)F)[nH]c(=O)c3)ccn2)n1 (stereo not drawn) [Example 26, 4-[2-[(2-Methylpyrimidin-4-yl)amino]-4-pyridyl]-6-[3-(trifluoromethyl)morpholin-4-yl]-1H-pyridin-2-one]",< 5 nM,0.01 µM
"Cc1nccc(Nc2cc(-c3cc(N4CCCCC4C(F)(F)F)[nH]c(=O)c3)ccn2)n1 (stereo not drawn) [Example 18, 4-[2-[(2-Methylpyrimidin-4-yl)amino]-4-pyridyl]-6-[2-(trifluoromethyl)-1-piperidyl]-1H-pyridin-2-one]",< 5 nM,–
"Cc1nccc(Nc2cc(-c3cc(-c4ccccc4Cl)[nH]c(=O)c3)ccn2)n1 [Example 66, 6-(2-Chlorophenyl)-4-[2-[(2-methylpyrimidin-4-yl)amino]-4-pyridyl]-1H-pyridin-2-one]",< 5 nM,–
"Cn1nccc1Nc1cc(-c2cc(-c3ccccc3C(F)(F)F)[nH]c(=O)c2)ccn1 [Example 50, 4-[2-[(2-Methylpyrazol-3-yl)amino]-4-pyridyl]-6-[2-(trifluoromethyl)phenyl]-1H-pyridin-2-one]",55 nM,0.254 µM
"Cc1nccc(Nc2cc(-c3cc(-c4cccnc4C(F)(F)F)[nH]c(=O)c3)ccn2)n1 [Example 57, 4-[2-[(2-Methylpyrimidin-4-yl)amino]-4-pyridyl]-6-[2-(trifluoromethyl)-3-pyridyl]-1H-pyridin-2-one]",< 5 nM,0.006 µM
"O=c1cc(-c2ccnc(Nc3ccccc3)n2)cc(-c2ccncc2)[nH]1 [Example 8, 4-(2-Anilinopyrimidin-4-yl)-6-(4-pyridyl)-1H-pyridin-2-one]",6 nM,0.066 µM
"O=c1cc(-c2ccnc(Nc3ccccc3)n2)cc(-c2ccccc2Cl)[nH]1 [Example 4, 4-(2-anilinopyrimidin-4-yl)-6-(2-chlorophenyl)-1H-pyridin-2-one]",< 5 nM,–
"O=c1cc(-c2ccnc(Nc3ccccc3)n2)cc(N2CCOCC2)[nH]1 [Example 10, 4-(2-anilinopyrimidin-4-yl)-6-morpholino-1H-pyridin-2-one]",< 5 nM,0.019 µM
"Cc1nc(Nc2cc(-c3cc(N4CCOCC4C(F)(F)F)[nH]c(=O)c3)ccn2)cs1 (stereo not drawn) [Example 42, 4-[2-[(2-Methylthiazol-4-yl)amino]-4-pyridyl]-6-[3-(trifluoromethyl)morpholin-4-yl]-1H-pyridin-2-one]",13 nM,–
"O=c1cc(-c2ccnc(Nc3ccccc3)n2)cc(N2CCOCC2C(F)(F)F)[nH]1 (stereo not drawn) [Example 27, 4-(2-Anilinopyrimidin-4-yl)-6-[3-(trifluoromethyl)morpholin-4-yl]-1H-pyridin-2-one]",< 5 nM,0.02 µM
"Cc1nccc(Nc2cc(-c3cc(N4CCN(S(=O)(=O)Cc5ccc(F)cc5)CC4C(F)(F)F)[nH]c(=O)c3)ccn2)n1 (stereo not drawn) [Example 33, 6-[4-[(4-Fluorophenyl)methylsulfonyl]-2-(trifluoromethyl)piperazin-1-yl]-4-[2-[(2-methylpyrimidin-4-yl)amino]-4-pyridyl]-1H-pyridin-2-one]",< 5 nM,0.003 µM
"Cc1nccc(Nc2cc(-c3cc(-c4cnccc4C)[nH]c(=O)c3)ccn2)n1 [Example 55, 6-(4-Methyl-3-pyridyl)-4-[2-[(2-methylpyrimidin-4-yl)amino]-4-pyridyl]-1H-pyridin-2-one]",< 5 nM,0.099 µM
"O=c1cc(-c2ccnc(Nc3ccccc3)n2)cc(N2CCCCC2C(F)(F)F)[nH]1 (stereo not drawn) [Example 21, 4-(2-Anilinopyrimidin-4-yl)-6-[2-(trifluoromethyl)-1-piperidyl]-1H-pyridin-2-one]",< 5 nM,–
"CCS(=O)(=O)N1CCN(c2cc(-c3ccnc(Nc4ccnc(C)n4)c3)cc(=O)[nH]2)C(C(F)(F)F)C1 (stereo not drawn) [Example 39, 6-[4-Ethylsulfonyl-2-(trifluoromethyl)piperazin-1-yl]-4-[2-[(2-methylpyrimidin-4-yl)amino]-4-pyridyl]-1H-pyridin-2-one]",< 5 nM,0.002 µM
"CCn1cc(-c2cc(-c3ccnc(Nc4ccnc(C)n4)c3)cc(=O)[nH]2)c(C(F)(F)F)n1 [Example 59, 6-[1-Ethyl-3-(trifluoromethyl)pyrazol-4-yl]-4-[2-[(2-methylpyrimidin-4-yl)amino]-4-pyridyl]-1H-pyridin-2-one]",< 5 nM,0.005 µM
"Cc1nccc(Nc2cc(-c3cc(-c4ccccc4C(F)(F)F)[nH]c(=O)c3)ccn2)n1 [Example 47, 4-[2-[(2-Methylpyrimidin-4-yl)amino]-4-pyridyl]-6-[2-(trifluoromethyl)phenyl]-1H-pyridin-2-one]",< 5 nM,0.003 µM
"O=c1cc(-c2ccnc(Nc3ccccc3)n2)cc(-c2cccnc2)[nH]1 [Example 6, 4-(2-Anilinopyrimidin-4-yl)-6-(3-pyridyl)-1H-pyridin-2-one]",< 5 nM,0.054 µM
"Cc1nc(Nc2cc(-c3cc(-c4ccccc4C(F)(F)F)[nH]c(=O)c3)ccn2)cs1 [Example 52, 4-[2-[(2-Methylthiazol-4-yl)amino]-4-pyridyl]-6-[2-(trifluoromethyl)phenyl]-1H-pyridin-2-one]",52 nM,–
